This is an account of results in patent US7659299B2, “Compounds inhibiting the binding of sap for treating osteoarthritis” (Pentraxin Therapeutics Limited, priority 2003, dated 2010).

Assay [1] has as its target T1, SAP (Homo sapiens, UniProt P02743). Nature of the assay: Surface plasmon resonance: calcium dependent binding of SAP to immobilised synthetic Aβ-42 amyloid fibrils. An excerpt: Surface plasmon resonance (SPR) is a low throughput but powerfully informative method to identify compounds that are bound by, or themselves bind to SAP, either in a calcium dependent fashion or independently of calcium, for the purposes of the present invention. For example, low molecular weight compounds that inhibit binding of SAP to its macromolecular ligands, including target ligands relevant to the present invention, can be detected by their effect on the signal generated by fluid phase SAP binding to ligand immobilised on the solid phase (Example A). Furthermore, when SAP itself is immobilised on the solid phase in an SPR instrument, the interaction with it of test molecules provided in the fluid phase generates a signal that can be detected and quantified. Purified SAP immobilized within an SPR instrument gives a quantifiable signal when it is exposed to another molecule that forms a complex with the SAP, and this is distinct from the absence of such a signal if no complex is formed. […] Another low throughput but powerful direct method is isothermal calorimetry that measures the heat of interaction in solution between SAP and test compounds according to the present invention. The binding affinity can be measured precisely as a guide to potential efficacy. Typical results by this method for the dissociation constants, Kd, between SAP and various compounds are as follows:
Synthetic Aβ-42 amyloid fibrils (28) were covalently immobilised on the reactant surface of the Fisons IAsys surface plasmon resonance instrument, and then exposed to isolated SAP (32) in solution in Tris-buffered physiological saline in the absence of calcium (shown as TN/N in the Figures). No binding of SAP occurred and thus no signal was generated. Introduction of calcium allowed the SAP to bind specifically to the immobilised amyloid fibrils, generating a readily detectable signal (FIG. 1). […]
(In general: SPR reads the build-up and loss of mass on a sensor chip optically.)

Assay [2] concerns the target T1, SAP. Nature of the assay: Inhibition of binding of 125I radiolabelled SAP to Neisseria meningitidis immobilized in microtitre plates. Further details: 5 μl of radiolabelled SAP in TN; from tissue. The settings on record: read-out: Percent inhibition of binding of radiolabelled SAP to immobilized Neisseria meningitidis; for inhibition at 0.2 µM: compound 200 nM; for inhibition at 2 µM: compound 2 μM; for inhibition at 20 µM: compound 20 μM. On the procedure: A suspension of heat killed Neisseria meningitidis at 1×10^8 organisms per ml in PBS was dispensed to polystyrene microtitre plates at 50 μl volumes per well, and left overnight at 4° C. All wells were then washed three times with 200 μl volumes of PBS containing 0.05% v/v Tween 20, prior to equilibration for 2 min with 0.01M Tris buffered 0.14M NaCl/0.002M CaCl2 at pH 8.0 (TC buffer), containing 4% w/v BSA and 0.05%/v Tween 20 (TCBT buffer). The wells were then emptied before adding to each one the following reagents. […] For background, non-specific, non calcium dependent, binding in the presence of EDTA: 5 μl radiolabelled SAP in TN and 45 μl 0.01M Tris buffered 0.14M NaCl at pH 8.0 containing 11.1 mM EDTA, 4.4% w/v BSA and 0.06% w/v Tween 20 (TEBT buffer) to provide final concentrations of EDTA, 10 mM; BSA, 4%; Tween 20, 0.05%. […] All wells were then incubated at room temperature for 2 h before being washed three times with 200 μl volumes of TCBT, allowed to dry for 1 h at room temperature, and bound radiolabelled SAP was then counted.
The capacity of the compounds tested to inhibit binding of SAP to meningococci is expressed as the percentage by which SAP binding was reduced compared to binding in the absence of any inhibitor (Table 1).

Assay [3] has as its target T1, SAP. The assay can be described thus: Inhibition of binding of 125I radiolabelled SAP to influenza virus immobilized in microtitre plates. Further details: 5 μl of radiolabelled SAP in TN; from tissue. The settings on record: read-out: Percent inhibition of binding of radiolabelled SAP to immobilized influenza virus; for inhibition at 0.2 µM: compound 200 nM; for inhibition at 2 µM: compound 2 μM; for inhibition at 20 µM: compound 20 μM; for inhibition at 200 µM: compound 200 μM. On the procedure:
A concentrated suspension of purified influenza virus A/Shanghai/24/90 at 10 mg protein per ml in PBS was diluted 1:50 in PBS and then dispensed to polystyrene microtitre plates at 50 μl volumes per well, and left overnight at 4° C. All wells were then emptied before blocking by addition to each well of 200 μl of 2% w/v BSA in PBS and incubation at room temperature for 1 h. All wells were then washed three times with 200 μl volumes of PBS containing 0.05% v/v Tween 20, prior to equilibration for 2 min with 0.01M Tris buffered 0.14M NaCl/0.002M CaCl2 at pH 8.0 (TC buffer), containing 4% w/v BSA and 0.05% v/v Tween 20 (TCBT buffer). The wells were then emptied before adding to each one the following reagents. […] For background, non-specific, non calcium dependent, binding in the presence of EDTA: 5 μl radiolabelled SAP in TN and 45 μl 0.01M Tris buffered 0.14M NaCl at pH 8.0 containing 11.1 mM EDTA, 4.4% w/v BSA and 0.06% w/v Tween 20 (TEBT buffer) to provide final concentrations of EDTA, 10 mM; BSA, 4%; Tween 20, 0.05%. […] All wells were then incubated at room temperature for 2 h before being washed three times with 200 μl volumes of TCBT, allowed to dry for 1 h at room temperature, and bound radiolabelled SAP was then counted. The compounds tested in the experiment shown here were the same as those specified in Example B above.
The capacity of the compounds tested to inhibit binding of SAP to the immobilised influenza virus is expressed as the percentage by which SAP binding was reduced compared to binding in the absence of any inhibitor (Table 3).

Assay [4] has as its target T1, SAP. Nature of the assay: Lead identification: inhibition of ligand binding by SAP (SAP binding to amyloid fibrils, high throughput screening). The settings on record: compared with the original hit Ro-15-3479. An excerpt:
The compounds tested in the experiment shown here were a family of molecules developed as inhibitors of SAP binding to amyloid fibrils, following identification of an initial lead molecule during high throughput screening of a large compound library according to U.S. Pat. No. 6,126,918. […] A chemistry programme then produced, (R)-1-[6-(R)-2-Carboxy-pyrrolidin-1-yl]-6-oxo-hexanoyl]pyrrolidine-2-carboxylic acid (Ro-63-8695) (Example 8b of EP-A-915088) and a family of related molecules, that were tested here.

The target in assay [5] is T1, SAP. The assay can be described thus: Inhibition of binding of 125I radiolabelled SAP to native long chromatin immobilized in microtitre plates. More on the design: 5 μl of radiolabelled SAP in TN; from tissue. The settings on record: read-out: Percent inhibition of binding of radiolabelled SAP to immobilized native long chromatin.

T1 sequence (P02743 20-223): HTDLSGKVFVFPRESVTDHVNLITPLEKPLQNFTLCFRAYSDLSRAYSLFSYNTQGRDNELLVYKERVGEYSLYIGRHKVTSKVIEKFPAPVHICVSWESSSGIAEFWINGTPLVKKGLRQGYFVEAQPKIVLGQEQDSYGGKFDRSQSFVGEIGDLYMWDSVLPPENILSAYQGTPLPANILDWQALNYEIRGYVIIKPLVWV

As usually defined, the inhibition is the relative decrease from the control value, in per cent. On to `C[C@H](CS)C(=O)N1CCC[C@@H]1C(=O)O` [Ro-15-3479, 1-[(S)-3-Mercapto-2-methylpropionyl]-D-proline], for which, on SAP [1] (50 μmol/l, added after SAP had bound, regenerated surface (FIG. 3)), the “Effect on SPR signal reflecting ligand binding by SAP” value is reported as “completely reversed”. The “SPR signal on addition of calcium after SAP and compound” value on SAP [1] (100 μmol/l, added before calcium (FIG. 2)) is “no signal”. Further, the “Effect on binding of SAP to immobilised amyloid fibrils and the corresponding SPR signal” value at SAP [1] (500 μmol/l in TC buffer, added after SAP had bound (FIG. 1)) is recorded as “completely reversed the binding of SAP”. At SAP [2], the inhibition at 0.2 µM came to 3%, the inhibition at 2 µM was 42% and the inhibition at 20 µM turned out to be 50%. In addition, at SAP [2] (compound 200 μM), the inhibition at 200 µM is 54%. Further, on SAP [3], the inhibition at 0.2 µM was 12%, the inhibition at 2 µM turned out to be 30%, the inhibition at 20 µM was 40% and the inhibition at 200 µM worked out at 51%.
In the case of `C[C@H](CSSC[C@@H](C)C(=O)N1CCC[C@@H]1C(=O)O)C(=O)N1CCC[C@@H]1C(=O)O` [Ro-63-3300, (R)-1-[(S)-3-[(S)-3-[(R)-2-carboxy-pyrrolidin-1-yl]-2-methyl-3-oxo-propyldisulfanyl]-2-methyl-propionyl]-pyrrolidine-2-carboxylic acid], the “Inhibition of ligand binding by SAP, in words” value on SAP [4] is on record as “much more potent”. Moreover, the results for the inhibition at 0.2 µM at SAP [2], on SAP [5] (compound 200 nM) and at SAP [3] were 28%, 3% and 47%, respectively. The inhibition at 2 µM at SAP [2] worked out at 68%; at SAP [5] (compound 2 μM), 34%; on SAP [3], 78%. Besides, the inhibition at 20 µM stood at 73% on SAP [2], 69% on SAP [5] (compound 20 μM) and 90% at SAP [3]. Also, the inhibition at 2000 µM at SAP [2] (compound 2 mM) is 100%; at SAP [5] (compound 2 mM), 99%; on SAP [3] (compound 2 mM), 91%. The inhibition at 200 µM on SAP [5] (compound 200 μM) amounted to 88%; on SAP [3] it was 91%.
